Data from paper PMC13489962, “Small-molecule modulation of β-arrestins” (Nature, 2026).
Several values for one entry are separate records, joined by “and”; a condition that tells them apart may be missing. Equal values may be shown once.

What was measured:
βARR1 = target: T1, βARR1 (Rattus norvegicus, UniProt P29066); experiment: ITC binding to βARR1; details: for Kd: one-site model
T1 construct: βARR1 or βARR2 construct, with their C terminus truncated (at amino acid 393 or 394, respectively); GST (pGEX4T1) (N, cleaved yes); made in house; host or cells: E. coli BL21 (DE3) pLysS
T1 sequence (P29066 1-393): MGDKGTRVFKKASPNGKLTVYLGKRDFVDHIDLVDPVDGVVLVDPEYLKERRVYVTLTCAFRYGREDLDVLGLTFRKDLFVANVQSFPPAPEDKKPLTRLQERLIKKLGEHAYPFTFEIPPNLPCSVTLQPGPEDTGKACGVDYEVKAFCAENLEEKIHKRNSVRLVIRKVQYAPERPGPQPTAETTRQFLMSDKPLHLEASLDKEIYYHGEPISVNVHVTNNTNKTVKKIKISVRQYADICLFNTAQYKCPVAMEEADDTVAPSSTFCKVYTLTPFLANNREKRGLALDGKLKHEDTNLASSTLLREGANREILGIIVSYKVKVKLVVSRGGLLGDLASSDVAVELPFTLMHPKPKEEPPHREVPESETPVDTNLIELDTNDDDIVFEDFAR
Method: The expression and purification of β-arrestins have been described previously[44],[62]–[64]. In brief, E. coli BL21 (DE3) pLysS cells (New England Biolabs: C2527I) carrying pGEX4T1-Rattus norvegicus βARR1 or βARR2 construct, with their C terminus truncated (at amino acid 393 or 394, respectively), were cultured in Terrific Broth (Teknova) medium at 37 °C. After OD600 reached 0.6–0.8, the cells were induced with 0.1 mM isopropyl-β-D-thiogalactopyranoside (IPTG) at 18 °C overnight. Bacteria were collected by centrifugation (4,000 rpm), and cell pellets were resuspended in lysis buffer (20 mM HEPES, pH 8, 150 mM NaCl, 10% glycerol, 1 mM EDTA, 0.2 mM dithiothreitol (DTT), 1 mM phenylmethylsulfonyl fluoride, and 1 mM benzamidine) at 4 °C for 1 h. Cell suspensions were sonicated, centrifuged (14,000 rpm, 30 min, 4 °C), and the supernatant was loaded onto pre-equilibrated glutathione–agarose resin (GoldBio). After 3 h of binding at 4 °C, the beads were washed, and thrombin was added for overnight cleavage. The proteins were further purified by anion exchange chromatography followed by size-exclusion chromatography using a Superdex 200 Increase 10/300 GL column on an ÄKTA FPLC system (GE Healthcare). Eluted fractions were analysed by SDS–PAGE, pooled, concentrated using 30 kDa MWCO Amicon Ultra-15 Centrifugal Filter devices, flash-frozen in liquid nitrogen, and stored in aliquots at −80 °C. The same rat βARR1 constructs with mutations (L129A, L129S, L129G, P131A, P133A, E134A, D135A, K138A, C140A, Y249A, C251A, E283A, K284A and R285A) were generated and purified in a similar manner. Recombinant Gα subunits (Gαs, Gαq and Gαi) were purified as GST fusion proteins using glutathione–agarose affinity chromatography as previously described. The heterotrimeric Gs protein complex, composed of Gαs, Gβ1 and Gγ2 subunits, was expressed in Sf9 cells using the baculovirus expression system and purified as previously described. M2R expression, purification and reconstitution into high-density lipoprotein (HDL) particles were performed as previously described. ERK2, SRC, p38α and JNK3 kinases were expressed and purified using previously established protocols[6],[16]. Protein concentrations for each protein were determined by ultraviolet absorption at 280 nm and extinction coefficients estimated using the ExPASy ProtParam tool[67].
ITC measurements were performed on a MicroCal iTC200 system at 25 °C. Prior to ITC experiments, all proteins (βARR1, βARR2 or βARR1 mutants) were extensively dialysed against 20 mM HEPES (pH 7.4), 100 mM NaCl, and 3 μM TCEP. Protein concentrations were determined by spectrophotometry at 280 nm, using extinction coefficients calculated from each protein sequence via the ProtParam program. The dialysis buffer was used to dilute DMSO stock solutions of β-arrestin small-molecule modulators to their final concentrations for measurements. For each ITC experiment, β-arrestin modulators (Cmpd-5 at 350 μM, Cmpd-46 at 450 μM, and Cmpd-64 at 450 μM) were loaded into the syringe and titrated into the calorimetric cell containing βARR1, βARR1 mutants or βARR2 (at about 30–40 μM, depending on the protein and experiment). Additional ITC experiments were also performed using purified GST-fused Gα subunits (Gαs, Gαq and Gαi; about 30 μM) and Gαiβγ heterotrimer (about 30 μM). Gα subunits were prepared in the same buffer (20 mM HEPES, pH 7.4, 100 mM NaCl, 3 μM TCEP), whereas the Gαiβγ heterotrimer was maintained in buffer supplemented with 0.05% DDM and 10 μM GDP, with matched DMSO carrier conditions. Modulators (300 μM) or corresponding DMSO controls were loaded and titrated as described above. The reference cell was filled with distilled water. In all experiments, the titration sequence typically consisted of an initial 0.4 μl injection, followed by 19 injections of 2 μl each, with a 180-s interval between injections to allow thermal power to return to baseline. […]

Gαi = experiment: ITC binding to purified Gαi
Method: ITC measurements were performed on a MicroCal iTC200 system at 25 °C. Prior to ITC experiments, all proteins (βARR1, βARR2 or βARR1 mutants) were extensively dialysed against 20 mM HEPES (pH 7.4), 100 mM NaCl, and 3 μM TCEP. Protein concentrations were determined by spectrophotometry at 280 nm, using extinction coefficients calculated from each protein sequence via the ProtParam program. The dialysis buffer was used to dilute DMSO stock solutions of β-arrestin small-molecule modulators to their final concentrations for measurements. For each ITC experiment, β-arrestin modulators (Cmpd-5 at 350 μM, Cmpd-46 at 450 μM, and Cmpd-64 at 450 μM) were loaded into the syringe and titrated into the calorimetric cell containing βARR1, βARR1 mutants or βARR2 (at about 30–40 μM, depending on the protein and experiment). Additional ITC experiments were also performed using purified GST-fused Gα subunits (Gαs, Gαq and Gαi; about 30 μM) and Gαiβγ heterotrimer (about 30 μM). Gα subunits were prepared in the same buffer (20 mM HEPES, pH 7.4, 100 mM NaCl, 3 μM TCEP), whereas the Gαiβγ heterotrimer was maintained in buffer supplemented with 0.05% DDM and 10 μM GDP, with matched DMSO carrier conditions. Modulators (300 μM) or corresponding DMSO controls were loaded and titrated as described above. The reference cell was filled with distilled water. In all experiments, the titration sequence typically consisted of an initial 0.4 μl injection, followed by 19 injections of 2 μl each, with a 180-s interval between injections to allow thermal power to return to baseline. During the experiment, the reference power was set to 7 μcal s^−1, and the sample cell was stirred continuously at 750 rpm. […] Data were analysed and fit using a one-site independent binding model to obtain the equilibrium dissociation constant, Kd (from the association constant Ka = 1/Kd), stoichiometry (N), and thermodynamic parameters including enthalpy (ΔH) and entropy (−TΔS) of binding. Data were analysed using MicroCal PEAQ-ITC analysis software (v1.1.0.1262).

Compound	stoichiometry N, βARR1 (βARR1)	ΔH, βARR1 wild type (βARR1; 25 °C)	Kd (βARR1; 25 °C)	binding to Gαi (Gαi)
C=C1C(=O)[C@]23[C@H](O)[C@H]1CC[C@H]2[C@@]12CO[C@]3(O)[C@@H](O)[C@@H]1C(C)(C)CC[C@@H]2O [Cmpd-5, (1S,4aR,5S,6S,6aR,9S,11aS,11bS,14R)-1,5,6,14-tetrahydroxy−4,4-dimethyl-8-methylenedecahydro-1H-6,11b-(epoxymethano)-6a,9-methanocyclohepta[a]naphthalen-7(8H)-one]	1	-13.4 kcal/mol	~400 nM and 362 nM	no measurable affinity
C=C1C(=O)C2=CC1CCC(=O)C1(C)CCC(OCC)C(C)(C)C1CC2O (stereo not shown) [Cmpd-46, (Z)-3-ethoxy-6-hydroxy-4,4,13a-trimethyl-9-methylene-1,2,3,4,4a,5,6,9,10,11,12,13a-dodecahydro-7,10-(metheno)benzo[11]annulene-8,13-dione]	1.2		1340 ± 740 nM	no measurable affinity
C=C1C(=O)OC2CC3(C)OC3CCC(C)=CC(OC(C)=O)C12 (stereo not shown) [Cmpd-64, (Z)-4,10a-dimethyl-7-methylene-8-oxo-1a,2,3,6,6a,7,8,9a,10,10a decahydrooxireno[2’,3’:8,9]cyclodeca[1,2-b]furan-6-yl acetate]	0.73		1420 ± 200 nM	very weak binding
